Laboratory results as given in US20250388554A1, “ANTIBACTERIAL COMPOUNDS, METHOD OF PRODUCTION AND USE THEREOF” (priority 2024, published 2025).
In brackets after ≈: the same amount, converted by molar mass.

Legend:
[1] = system: drug resistant clinical isolate S7 (Resistant to INH); assay: Resazurin assay (REMA) / alamarBlue MIC; type: cell-based; details: Mycobacterium tuberculosis, read-out: MIC99 (S7)
[2] = system: drug resistant clinical isolate S6 (Resistant to INH+Rifampicin); assay: microbe, parasite or virus in culture; type: cell-based; details: Mycobacterium tuberculosis, read-out: MIC99 (S6)

| SMILES | MIC99 [1] [µM] | MIC99 [2] [µM] |
| --- | --- | --- |
| CC(N)c1ncnn1C (stereo not shown) [SF1, 1-(2-methyl-1,2,4-triazol-3-yl)ethanamine] | 250 (≈ 31.5 µg/mL) |  |
| NCCSc1ncn[nH]1 [SF3, 2-(1H-1,2,4-triazol-5-ylsulfanyl)ethanamine] | 250 (≈ 36.1 µg/mL) |  |
| CC(C)C(N)c1ncnn1C (stereo not shown) [SF2, 2-methyl-1-(2-methyl-1,2,4-triazol-3-yl)propan-1-amine] | 125 (≈ 19.3 µg/mL) | 125 (≈ 19.3 µg/mL) |
